The values that follow come from ChEMBL document CHEMBL3994614, “Novel flavonolignan hybrid antioxidants: From enzymatic preparation to molecular rationalization” (Eur J Med Chem, 2017).

Data set [1] is described as follows: Electro-oxidation activity at glassy carbon electrode in pH 5 acetate buffer at 50 uM by square-wave voltammetry.
Data set [2] relates to Liver. Nature of the data set: Antioxidant activity against tert-butyl hydroperoxide-induced lipoperoxidation in rat liver microsomal membranes preincubated for 10 mins followed by tert-butyl hydroperoxide addition measured after 60 mins by TBARS assay. The class given is functional, cell membranes, Microsomal Membrane. A general note: Liver microsomes are a subcellular fraction often used to study metabolism.

Data set [3] is described as follows: Antiradical activity assessed as gallic acid equivalents of Foline-Ciocalteu reagent reducing capacity at 1 mM preincubated for 5 mins followed by Na2CO3 addition measured after 90 mins.
Data set [4] can be described thus: Antioxidant activity assessed as trolox equivalent of ABTS radical scavenging activity at 100 uM measured at >= 5 mins. The class given is functional.
Data set [5] is described as follows: Antioxidant activity assessed as DPPH radical scavenging activity after 30 mins by spectrophotometric method. The class given is functional.
For data set [6], the system named is Liver. Nature of the data set: Antioxidant activity against tert-butyl hydroperoxide-induced lipoperoxidation in rat liver microsomal membranes at 1 mM preincubated for 10 mins followed by tert-butyl hydroperoxide addition measured after 60 mins by TBARS assay relative to control. The class given is functional, cell membranes. The conditions noted are these: Microsomal Membrane.

Data set [7] in a line: Aqueous solubility of the compound in buffer solution. The class given is physicochemical.
Data set [8] relates to HepG2. Nature of the data set: Cytoprotective activity against tert-butyl hydroperoxide-induced toxicity in human HepG2 cells assessed as cell viability at 5 uM pretreated for 1 hr followed by co-treatment with tert-butyl hydroperoxide for 3 hrs by MTT assay (reference value: 22%). The class given is functional.
Data set [9] is described as follows: Antioxidant activity assessed as trolox equivalent of ABTS radical scavenging activity at 100 uM measured at >= 5 mins in presence of L-ascorbic acid. The class given is functional.
The nature of data set [10]: Antiradical activity assessed as gallic acid equivalents of Foline-Ciocalteu reagent reducing capacity at 1 mM preincubated for 5 mins followed by Na2CO3 addition measured after 90 mins in presence of L-ascorbic acid.
The nature of data set [11]: Antioxidant activity assessed as DPPH radical scavenging activity after 30 mins in presence of L-ascorbic acid by spectrophotometric method. The class given is functional. In general terms: DPPH is a stable violet radical that fades when it is reduced.
Data set [12] deals with HepG2. As to the kind of experiment: Cytoprotective activity against tert-butyl hydroperoxide-induced decrease in cell viability in human HepG2 cells at 5 uM pretreated for 1 hr followed by co-treatment with tert-butyl hydroperoxide for 3 hrs in presence of L-ascorbic acid by MTT assay. The class given is functional, cell-based. (Tetrazolium dyes change colour on reduction, which living cells bring about.)

Data set [13] has as its system Liver. Nature of the data set: Antioxidant activity against tert-butyl hydroperoxide-induced lipoperoxidation in rat liver microsomal membranes preincubated for 10 mins followed by tert-butyl hydroperoxide addition measured after 60 mins in presence of L-ascorbic acid by TBARS assay. The class given is functional, cell membranes, Microsomal Membrane.
In data set [14] the test system is HepG2. Nature of the data set: Cytotoxicity against human HepG2 cells assessed as reduction in cell viability up to 10 uM after 4 hrs by MTT assay. The class given is cell-based. The conditions noted are these: hepg2, 4 h.
Data set [15] deals with HepG2. Nature of the data set: Cytoprotective activity against tert-butyl hydroperoxide-induced toxicity in human HepG2 cells assessed as cell viability at 5 uM pretreated for 1 hr followed by tert-butyl hydroperoxide addition for 3 hrs by MTT assay (reference value: 16%). The class given is functional.
Data set [16] is described as follows: Antioxidant activity assessed as trolox equivalent of ABTS radical scavenging activity at 100 uM measured at >= 5 mins in presence of silybin. The class given is functional.
For data set [17], the system named is Liver. As to the kind of experiment: Antioxidant activity against tert-butyl hydroperoxide-induced lipoperoxidation in rat liver microsomal membranes preincubated for 10 mins followed by tert-butyl hydroperoxide addition measured after 60 mins in presence of silybin by TBARS assay. The class given is functional, cell membranes, Microsomal Membrane.
Data set [18] can be described thus: Antioxidant activity assessed as DPPH radical scavenging activity after 30 mins in presence of silybin by spectrophotometric method. The class given is functional.
The nature of data set [19]: Antiradical activity assessed as gallic acid equivalents of Foline-Ciocalteu reagent reducing capacity at 1 mM preincubated for 5 mins followed by Na2CO3 addition measured after 90 mins in presence of silybin.
In data set [20] the test system is Liver. Nature of the data set: Antioxidant activity against tert-butyl hydroperoxide-induced lipoperoxidation in rat liver microsomal membranes at 50 uM preincubated for 10 mins followed by tert-butyl hydroperoxide addition measured after 60 mins by TBARS assay relative to control. The class given is functional, cell membranes. The conditions noted are these: Microsomal Membrane.

For data set [21], the system named is HepG2. As to the kind of experiment: Cytoprotective activity against tert-butyl hydroperoxide-induced decrease in cell viability in human HepG2 cells at 5 uM pretreated for 1 hr followed by co-treatment with tert-butyl hydroperoxide for 3 hrs in presence of silybin by MTT assay. The class given is functional, cell-based.
Data set [22] is described as follows: Electro-oxidation activity at glassy carbon electrode in pH 2 to 12 at 50 uM by square-wave voltammetry.

By IC50 is commonly meant the concentration at which inhibition is half-maximal. For orientation: inhibition means the relative decrease from the control value, in per cent.

Calls of active or inactive are those of the source. No cut-off for these calls is given here. Some results are limits rather than exact numbers.

Take `C=COC(=O)CCCCCCCCCCC(=O)OC=C`: in [1], the outcome was inactive.
With `COc1cc([C@H]2Oc3cc([C@H]4Oc5cc(O)cc(O)c5C(=O)[C@@H]4O)ccc3O[C@@H]2COC(=O)CCCCCCCCCCC(=O)OCCc2ccc(O)cc2)ccc1O`, the IC50 in the data set on Liver [2] was > 1000 µM; in data set [5] it was 253 µM. Besides, the Activity in [3] was 0.17 equiv; in [4] it was 0.33 equiv. The result in data set [1] was inactive. Also, the inhibition in the data set with Liver [6] is 17%.
For `C=COC(=O)CCCCCCCCCCC(=O)OC[C@H]1Oc2ccc([C@H]3Oc4cc(O)cc(O)c4C(=O)[C@@H]3O)cc2O[C@@H]1c1ccc(O)c(OC)c1`, the solubility entry in [7] is “Insoluble”. The IC50 was 111 µM with Liver [2] and 372 µM in [5]. For the same compound, the values for the Activity in [3] and in data set [4] were 0.15 equiv and 0.93 equiv, respectively. Moreover, in [1], the outcome was inactive.
With `COc1cc(C2Oc3cc([C@H]4Oc5cc(O)cc(O)c5C(=O)[C@@H]4O)ccc3OC2CO)ccc1O` (stereo not given in full) [SILIBININ], the outcome (in the data set with HepG2 [8]; in the data set with HepG2 [12]; in [1]; in the data set on HepG2 [15]) was inactive. In addition, the IC50 was 77.1 µM in the data set with Liver [2], 2940 nM in data set [11], 244 µM in data set [5] and 56.5 µM in the data set on Liver [13]. Further, the Activity in data set [3] was 0.92 equiv; in data set [9] it was 0.42 equiv; in [10], 0.25 equiv; in [4], 0.78 equiv; in the data set with HepG2 [14], “Non-Toxic”.
For the compound `COc1cc([C@H]2Oc3cc([C@H]4Oc5cc(O)cc(O)c5C(=O)[C@@H]4O)ccc3O[C@@H]2COC(=O)CCCCCCCCCCC(=O)OCC2(C)CCc3c(C)c(O)c(C)c(C)c3O2)ccc1O` (stereo not given in full), the IC50 with Liver [2] was 72.9 µM; in data set [5], 3.5 µM. The Activity in data set [3] worked out at 0.15 equiv; in data set [4] it was 0.24 equiv. Further, the result in data set [1] was inactive.
Regarding `O=C1O[C@H]([C@@H](O)CO)C(O)=C1O` [ASCORBIC ACID], the Activity is 0.42 equiv in data set [16]; 0.51 equiv in data set [3]; 0.25 equiv in data set [19]; 0.57 equiv in data set [4]; “Non-Toxic” with HepG2 [14]. In addition, the result in the data set on HepG2 [8], in the data set with HepG2 [21] and in the data set with HepG2 [15] was inactive. Moreover, the IC50 with Liver [17] was 56.5 µM; in the data set on Liver [2], > 1000 µM; in data set [18] it was 2940 nM; in data set [5], 2.76 µM. Also, the inhibition came out at 139% with Liver [20] and 13% with Liver [6].
With `COc1cc([C@H]2Oc3cc([C@H]4Oc5cc(O)cc(O)c5C(=O)[C@@H]4O)ccc3O[C@@H]2COC(=O)CCCCCCCCCCC(=O)OC[C@H](O)[C@H]2OC(=O)C(O)=C2O)ccc1O`, the outcome in data set [22] and in [1] was Active. The viability at 5 µM with HepG2 [8] (read-out: Activity) amounted to 43%; with HepG2 [15] (read-out: Activity), 27%. The IC50 in the data set on Liver [2] amounted to 30.2 µM; in data set [5] it was 20.6 µM. The Activity is 0.65 equiv in [3], 1.32 equiv in data set [4] and “Non-Toxic” with HepG2 [14].
As to `Cc1c(C)c2c(c(C)c1O)CCC(C)(CO)O2` (stereo not given), in [5], the IC50 worked out at 3.58 µM.
